The test system of experiment [1] is diet-induced obese (DIO) C57BL/6 mice. The experiment can be described thus: Chronic low-dose (7.5 nmol/kg) G108 study in DIO mice on SP or HP diet. In kind it is in vivo, mouse. The conditions noted are these: 7.5 nmol/kg s.c. daily. The text has this: Lean 10-week-old C57BL/6 mice (N = 27) were provided ad libitum a 60 kcal% high fat diet (diet D12492, Table S2) for 12 weeks prior to the start of the study. The cohort of mice were individually housed and divided into three treatment groups, based on treatment and diet allocation: Vehicle/High fat, Standard protein diet (SP) (N = 9), 7.5 nmol/kg G108/SP diet (N = 9) and 7.5 nmol/kg G108/High fat, High protein diet (HP) (N = 9). The high fat, standard protein diet (SP diet) (D08091803) and high fat, high protein diet (HP diet) (D08091801) are detailed in Table S2. All mice had ad libitum access to water and their allocated diets. Mice were subcutaneously administered with their respective treatments at 9 am each day for 27 days. Food intake, water intake and body weight were measured using the same weighing scale each morning prior to vehicle or G108 administration. EchoMRI was carried out at baseline, day 14 and day 25. Tail venesection was carried out on day 13 of the study immediately pre-treatment. 40–50 μL of blood was collected and immediately transferred on ice, centrifuged at 2800 × g for 10 min prior to analysis for total and individual plasma amino acids. A glucose tolerance test was carried out on day 15 of the study following a 5 h fast as described below. Forelimb grip strength testing was performed at baseline and day 25 of the study. After 20 days, all groups were placed into metabolic cages, single housed for 72 h, as described below. After 72 h, all groups were removed from the metabolic cages and returned to their home cages. Following a 4 h fast on day 27 all mice were culled, with the following tissues dissected and snap frozen in liquid nitrogen prior to storage at −80°C: gastrocnemius, quadriceps, brown adipose tissue (BAT) and liver. Terminal blood was also collected and transferred on ice immediately for centrifugation as previously described and storage at −80°C.
Food intake was measured daily using a dedicated weighing scale and topped up accordingly. Body weight was recorded at 9 am daily or every 48 h using the same weighing scale. Body composition was measured using an EchoMRI analyser at various timepoints during chronic studies. Body composition measurements were taken on the same time of day to reduce intra-animal variability. Animals were placed in a transparent cylindrical Perspex tube and both ends secured with Perspex clips. The tubes containing the animal was then carefully placed into the MRI machine (EchoMRI −100H analyser, EchoMRI). Each scan lasted approximately 90 s where lean mass and fat mass were recorded in grams. Following the scan, the mice were removed from the Perspex tube and returned to their respective cages.
For glucose tolerance tests, following a 5 h fast and administration of peptide or vehicle treatment, mice were administered with glucose by intraperitoneal injection at a dose of 2 g/kg body weight. Tail vein blood samples were taken at baseline, 20, 40, 60 and 90 min and glucose measured (mmol/L) using a handheld GlucoRx monitor (GlucoRx, UK).
To measure energy expenditure, DIO mice were placed into a Comprehensive Laboratory Animal Monitoring System (CLAMS, Columbus instruments, Columbus, US). Measurement of oxygen consumption and carbon dioxide production was taken at 20 min intervals. Food intake was also measured electronically without the need to remove food. Each cohort of mice were placed into the CLAMS system with daily weighing of body weight prior to administration of the allocated treatment at 9 am. Following administration of treatment, mice were placed back into the metabolic cages with ad libitum access to their allocated diet. For studies with the low amino acid (LAA) diet in metabolic cages, animals were not removed from the metabolic cages until the end of the experiment and had ad libitum access to either standard protein or low amino acid diets. Feed efficiency was calculated as mg body weight change per kJ consumed. […]

Another experiment deals with lean C57BL/6 mice. Briefly: Blood glucose after a single dose in lean mice. In kind it is in vivo, mouse. To be noted: 10 nmol/kg single intraperitoneal injection, up to 2 h, n = 6/group. The protocol:
Twelve weight-matched 12-week-old lean C57BL/6 mice were fasted for 2 h prior to a single intraperitoneal injection of 10 nmol/kg dose of G108 diluted in sterile HPLC water (pH > 7), or vehicle control alone. Tail venesection was performed at baseline, 15, 30, 60 and 120 min and blood glucose measured using a handheld GlucoRx meter. For hepatic carbohydrate and amino acid metabolism gene expression analysis, weight-matched 12-week-old lean C57BL/6 mice were subcutaneously administered with 20 nmol/kg G108 diluted in sterile HPLC water (pH > 7), or vehicle control via subcutaneous injection at 9 am (N = 8). All animals had ad libitum access to RM1 diet and water. Liver tissue was dissected at 24 h and stored at −80°C prior to hepatic gene expression analysis.

SMILES strings stand for the structures. Starred links: 1 amine or outer side, 2 acyl side, 3 side chain; linkers in the order of their positions; H or OH if unused. Non-standard residues stand in square brackets, D forms with d. Residues, ends and D or L forms follow the SMILES beside them. Groups on a side chain read outwards from the residue. *: point of attachment. C18 diacid = O=C(O)CCCCCCCCCCCCCCCCC(=O)*; γGlu = O=C(O)[C@H](CCC(=O)[*:2])N[*:1]; Aib = CC(C)(N)C(=O)O

Take `CC[C@H](C)[C@H](NC(=O)[C@H](Cc1ccccc1)NC(=O)[C@H](CCC(=O)O)NC(=O)[C@H](CCC(N)=O)NC(=O)[C@H](C)NC(=O)[C@H](CCCNC(=N)N)NC(=O)[C@H](CCCCN)NC(=O)[C@H](C)NC(=O)[C@H](CC(=O)O)NC(=O)[C@H](CC(C)C)NC(=O)[C@H](Cc1ccc(O)cc1)NC(=O)[C@H](CCCNC(=N)N)NC(=O)[C@H](CO)NC(=O)[C@H](Cc1ccc(O)cc1)NC(=O)[C@H](CC(=O)O)NC(=O)[C@H](CO)NC(=O)[C@@H](NC(=O)[C@H](Cc1ccccc1)NC(=O)[C@@H](NC(=O)CNC(=O)[C@H](Cc1c[nH]cn1)NC(=O)C(C)(C)NC(=O)[C@@H](N)Cc1c[nH]cn1)[C@@H](C)O)[C@@H](C)O)C(=O)N[C@@H](CCC(=O)O)C(=O)N[C@@H](Cc1c[nH]c2ccccc12)C(=O)N[C@@H](CC(C)C)C(=O)N[C@@H](CC(C)C)C(=O)N[C@@H](CCC(N)=O)C(=O)N[C@@H](CO)C(=O)N[C@@H](Cc1c[nH]cn1)C(=O)N[C@@H](Cc1c[nH]cn1)C(=O)N[C@@H](CCC(N)=O)C(=O)N[C@@H](Cc1c[nH]cn1)C(=O)N[C@@H](Cc1c[nH]cn1)C(=O)N1CCC[C@H]1C(=O)N[C@@H](CO)C(=O)N1CCC[C@H]1C(=O)N1CCC[C@H]1C(=O)N1CCC[C@H]1C(=O)N[C@@H](CCCCNC(=O)[C@H](CC(N)=O)NC(=O)CC[C@H](NC(=O)CCCCCCCCCCCCCCCCC(=O)O)C(=O)O)C(N)=O` [Peptide G108] (H-H[Aib]HGTFTSDYSRYLDAKRAQEFIEWLLQSHHQHHPSPPPK([Asn-γGlu-C18 diacid])-NH2; N-terminus and C-terminus assumed): the food intake result in experiment [1] (27 days) was “did not affect food intake”. The “body weight on high protein (HP) diet” value in experiment [1] (27 days, HP diet (40 kcal% protein) versus SP diet, n = 9/group) is on record as “sufficient to prevent chronic G108-mediated weight loss”. In addition, the “lean mass and grip strength on HP diet” value in experiment [1] (HP diet, less pronounced over the course of the study) was “blunted the reduction in lean mass and grip strength”. For the same compound, the “energy expenditure (EE) in metabolic cages” value in experiment [1] (after 20 days, CLAMS, SP and HP diets, n = 7-8/group) is given as “increased EE on a standard protein (SP), but not HP, diet”. The “individual plasma amino acids” value in experiment [1] (day 13, SP diet, GC/MS, n = 5/group) is given as “reduced the plasma abundance of most amino acids”. Moreover, the plasma total cholesterol entry in experiment [1] (day 14, both SP and HP diets, n = 9/group) is “improvement in plasma cholesterol”. Further, in experiment [1] (day 14, n = 9/group), the plasma total triglyceride result is on record as “no change in plasma triglycerides”. In addition, the “glucose tolerance (intraperitoneal glucose tolerance test, 2 g/kg)” value in experiment [1] (day 15, SP and HP diets, n = 9/group) is reported as “remarkably efficient at improving glucose tolerance”. In experiment [1] (days 14 and 25, SP diet, prevented by HP diet), the “fat mass on standard protein (SP) diet” value is given as “marked reduction in fat mass”. In addition, the “induction of hepatic amino acid catabolic pathways on HP diet” value in experiment [1] (liver qPCR, n = 5-6/group) is on record as “not prevented by the HP diet”. For the same compound, the “hepatic lipid content (oil red O staining)” value in experiment [1] (terminal (day 27), both SP and HP diets) was “highly effective at clearing liver fat”. Further, the “blood glucose after a single dose” value in the experiment on lean C57BL/6 mice was “acute increase in blood glucose”.
